This is an account of results in patent publication US8501754B2, “Quinazolinamide derivatives” (MERCK PATENT GmbH, priority 2007, dated 2013).

For this assay, the target named is Recombinant human HSP90a (Homo sapiens, UniProt P07900). Nature of the assay: radioligand filter binding test ([3H]17AAG competition) for HSP90 inhibition. The conditions noted are these: competition with [3H]17AAG 0.08 μM, HSP90 1.5 μg/assay, 22° C., 30 min. The source says:
Test Method for the Measurement of HSP90 Inhibitors
The binding of geldanamycin or 17-allylamino-17-demethoxygeldanamycin (17AAG) to HSP90 and competitive inhibition thereof can be utilized in order to determine the inhibitory activity of the compounds according to the invention (Carreras et al. 2003, Chiosis et al. 2002).
In the specific case, a radioligand filter binding test is used. The radioligand used here is tritium-labelled 17-allylaminogeldanamycin, [3H]17AAG. This filter binding test allows a targeted search for inhibitors which interfere with the ATP binding site.
Recombinant human HSP90a (E. coli expressed, 95% purity);
[3H]17AAG (17-allylaminogeldanamycin, [allylamino-2,3-^3H. Specific activity: 1.11×10^12 Bq/mmol (Moravek, MT-1717);
HEPES filter buffer (50 mM HEPES, pH 7.0, 5 mM MgCl2, BSA 0.01%) Multiscreen FB (1 μm) filter plate (Millipore, MAFBNOB 50).
The 96-well microtitre filter plates are firstly irrigated and coated with 0.1% of polyethylenimine.
The test is carried out under the following conditions:
Reaction temperature 22° C.
Reaction time: 30 min., shaking at 800 rpm
50 mM HEPES HCl, pH 7.0, 5 mM MgCl2, 0.01% (w/v) of BSA
At the end of the reaction, the supernatant in the filter plate is removed by suction with the aid of a vacuum manifold (Multiscreen Separation System, Millipore), and the filter is washed twice.
The filter plates are then measured in a beta counter (Microbeta, Wallac) with scintillator (Microscint 20, Packard).
“% of control” is determined from the “counts per minutes” values, and the IC-50 value of a compound is calculated therefrom.

As to `CN1CCN(S(=O)(=O)c2ccccc2-c2ccc3nc(N)nc(C(=O)N4Cc5ccccc5C4)c3c2)CC1` [Compound A980, {2-amino-6-[2-(4-methylpiperazine-1-sulfonyl)phenyl]quinazolin-4-yl}-(1,3-dihydroisoindol-2-yl)methanone], the IC50 lay in the range of 10 to 1000 nM.
In the case of `CNC(=O)c1nc(N)nc2ccccc12` [Compound A1, 2-amino-4-methylcarbamoylquinazoline] it was over 10000 nM.
On to `Nc1nc(C(=O)N2Cc3ccccc3C2)c2cc(NC3CCCCC3)ccc2n1` [Compound A949], for which the IC50 was in the range of 10 to 1000 nM.
Under `CN(Cc1ccc(F)cc1)C(=O)c1nc(N)nc2ccccc12` [Compound A73, 2-Amino-4-[(4-fluorobenzyl)methylcarbamoyl]quinazoline] stands over 10000 nM; under `Nc1nc(C(=O)Nc2cccc3cccnc23)c2ccccc2n1` [Compound A48], 1000 to 10000 nM; under `Nc1nc(C(=O)N2Cc3ccccc3C2)c2cc(-c3cc4ccccc4o3)ccc2n1` [Compound A921, 2-Amino-6-(benzofuran-2-yl)-4-(1,3-dihydroisoindol-2-ylcarbonyl)quinazoline], 1000 to 10000 nM.
In the case of `CN(C)Cc1ccccc1-c1ccc2nc(N)nc(C(=O)N3Cc4ccccc4C3)c2c1` [Compound A975] it was 10 to 1000 nM.
In the case of “2-Amino-4-propylethylcarbamoylquinazoline [Compound A11]”, the IC50 is 1000 to 10000 nM.
Consider `N#Cc1ccccc1-c1ccc2nc(N)nc(C(=O)N3Cc4ccccc4C3)c2c1` [Compound A328], for which the IC50 lay in the range of 10 to 1000 nM.
On to `Nc1nc(C(=O)N2Cc3ccccc3C2)c2cc(-c3ccc(O)cc3CO)ccc2n1` [Compound A1006], for which the IC50 lay in the range of 10 to 1000 nM.
With `Nc1nc(C(=O)Nc2cccc3c2CCCC3)c2ccccc2n1` [Compound A50], the IC50 was 1000 to 10000 nM.
Consider `Nc1nc(C(=O)N2Cc3ccccc3C2)c2cc(Br)ccc2n1` [Compound A125, 2-Amino-6-bromo-4-(1,3-dihydroisoindol-2-ylcarbonyl)quinazoline], for which the IC50 was in the range of 1000 to 10000 nM.
In the case of `CC(C)c1ccc2nc(N)nc(C(=O)N3Cc4ccc(Br)cc4C3)c2c1` [Compound A117, 2-Amino-6-isopropyl-4-(5-bromo-1,3-dihydroisoindol-2-ylcarbonyl)quinazoline], the IC50 is 1000 to 10000 nM.
`CN(C)CCCNc1ccc2nc(N)nc(C(=O)N3Cc4ccccc4C3)c2c1` [Compound A940]: the IC50 is over 10000 nM.
Regarding `CNCc1ccccc1-c1ccc2nc(N)nc(C(=O)N3Cc4ccccc4C3)c2c1` [Compound A933], the 50% inhibitory concentration (IC50) was 10 to 1000 nM.
Consider `CCc1ccc2nc(N)nc(C(=O)N3Cc4ccc(Br)cc4C3)c2c1` [Compound A96, 2-Amino-6-ethyl-4-(5-bromo-1,3-dihydroisoindol-2-ylcarbonyl)quinazoline], for which the IC50 lay in the range of 10 to 1000 nM.
For the molecule `NCc1ccccc1-c1ccc2nc(N)nc(C(=O)N3Cc4ccccc4C3)c2c1` [Compound A936], the IC50 lay in the range of 1000 to 10000 nM.
Take `Nc1nc(C(=O)N2Cc3ccccc3C2)c2cc(-c3ccccc3C(=O)N3CCNCC3)ccc2n1` [Compound A1007]: the IC50 fell in the range of 10 to 1000 nM.
With `CCCN(C)C(=O)c1nc(N)nc2ccccc12` [Compound A10, 2-Amino-4-propylmethylcarbamoylquinazoline], the IC50 is over 10000 nM.
In the case of `Nc1nc(C(=O)N2Cc3ccccc3C2)c2cc(C#CCO)ccc2n1` [Compound A964, 2-amino-6-(3-hydroxyprop-1-ynyl)-4-(1,3-dihydroisoindol-2-ylcarbonyl)quinazoline] it was 10 to 1000 nM.
In the case of `Nc1nc(C(=O)N2Cc3ccccc3C2)c2cc(-c3ccncc3)ccc2n1` [Compound A923, 2-Amino-6-(pyridin-4-yl)-4-(1,3-dihydroisoindol-2-ylcarbonyl)quinazoline], the IC50 is 1000 to 10000 nM.
In the case of `Nc1nc(C(=O)N2Cc3ccccc3C2)c2cc(N3CCN(C(=O)OCc4ccccc4)CC3)ccc2n1` [Compound A939] it was 10 to 1000 nM.
As to `CN1CCN(Cc2cc(O)ccc2-c2ccc3nc(N)nc(C(=O)N4Cc5ccccc5C4)c3c2)CC1` [Compound A1002], the 50% inhibitory concentration (IC50) lay within 10 to 1000 nM.
On to `CCNCc1ccccc1-c1ccc2nc(N)nc(C(=O)N3Cc4ccccc4C3)c2c1` [Compound A978], for which the IC50 lay in the range of 10 to 1000 nM.
With `Nc1nc(C(=O)N2Cc3ccccc3C2)c2cc(-c3ccccc3O)ccc2n1` [Compound A335, [2-amino-6-(2-hydroxyphenyl)quinazolin-4-yl]-(1,3-dihydroisoindol-2-yl)methanone], the IC50 was 10 to 1000 nM.
On to `CCc1ccc2nc(N)nc(C(=O)N3Cc4ccc(O)cc4C3)c2c1` [Compound A95, 2-Amino-6-ethyl-4-(5-hydroxy-1,3-dihydroisoindol-2-ylcarbonyl)quinazoline], for which the IC50 lay in the range of 1000 to 10000 nM.
For `CCc1ccc2nc(N)nc(C(=O)N3Cc4ccccc4C3)c2c1` [Compound A97, 2-Amino-6-ethyl-4-(1,3-dihydroisoindol-2-ylcarbonyl)quinazoline], the IC50 lay in the range of 10 to 1000 nM.
Turning to `Nc1nc(C(=O)N2Cc3ccccc3C2)c2cc(C#CCCO)ccc2n1` [Compound A997], the IC50 was 10 to 1000 nM.
With `CCN(C)C(=O)c1nc(N)nc2ccccc12` [Compound A6, 2-Amino-4-ethylmethylcarbamoylquinazoline], the IC50 is over 10000 nM.
Consider `COc1ccc(Cl)cc1CN(C)C(=O)c1nc(N)nc2ccccc12` [Compound A72, 2-Amino-4-[(3-chloro-6-methoxybenzyl)methylcarbamoyl]quinazoline], for which the IC50 was over 10000 nM.
Turning to `Nc1nc(C(=O)N2Cc3ccccc3C2)c2cc(-c3ccccc3CNC3CCC(O)CC3)ccc2n1` (stereo not shown) [Compound A977], the half-maximal inhibitory concentration (IC50) fell in the range of 1000 to 10000 nM.
Regarding `CCN(CC)C(=O)c1nc(N)nc2ccc(C)cc12` [Compound A77, 2-Amino-6-methyl-4-diethylcarbamoylquinazoline], the IC50 is 1000 to 10000 nM.
Under `CCN(CC)C(=O)c1cccc(-c2ccc3nc(N)nc(C(=O)N4Cc5ccccc5C4)c3c2)c1` [Compound A931] stands 10 to 1000 nM; under `CCNC(=O)c1ccc2nc(N)nc(C(=O)N(CC)CC)c2c1` [Compound A140, 2-Amino-6-ethylcarbamoyl-4-diethylcarbamoylquinazoline], over 10000 nM.
In the case of `N#CCc1ccccc1-c1ccc2nc(N)nc(C(=O)N3Cc4ccccc4C3)c2c1` [Compound A344a] it was 10 to 1000 nM; in that of `CCN(CC)C(=O)c1nc(N)nc2ccccc12` [Compound A7, 2-Amino-4-diethylcarbamoylquinazoline], over 10000 nM; in that of `CCc1ccccc1-c1ccc2nc(N)nc(C(=O)N3Cc4ccccc4C3)c2c1` [Compound A924, 2-Amino-6-(2-ethylphenyl)-4-(1,3-dihydroisoindol-2-ylcarbonyl)quinazoline], 10 to 1000 nM.
With `Nc1nc(C(=O)N2Cc3ccccc3C2)c2cc(NCc3ccccc3)ccc2n1` [Compound A950], the half-maximal inhibitory concentration (IC50) lay within 1000 to 10000 nM.
With `CN1CCN(Cc2ccccc2-c2ccc3nc(N)nc(C(=O)N4Cc5ccccc5C4)c3c2)CC1` [Compound A970, {2-amino-6-[2-(4-methylpiperazin-1-ylmethyl)phenyl]quinazolin-4-yl}-(1,3-dihydroisoindol-2-yl)methanone], the IC50 is 10 to 1000 nM.
As for `Nc1nc(C(=O)N2Cc3ccccc3C2)c2cc(-c3cccc(O)c3)ccc2n1` [Compound A925, 2-Amino-6-(3-hydroxyphenyl)-4-(1,3-dihydroisoindol-2-ylcarbonyl)quinazoline], the IC50 was 1000 to 10000 nM.
Regarding `CN(C)CCOc1ccccc1-c1ccc2nc(N)nc(C(=O)N3Cc4ccccc4C3)c2c1` [Compound A986, {2-amino-6-[2-(2-dimethylaminoethoxy)phenyl]quinazolin-4-yl}-(1,3-dihydroisoindol-2-yl)methanone], the concentration for half-maximal inhibition (IC50) lay in the range of 10 to 1000 nM.
On to `Nc1nc(C(=O)N2Cc3ccccc3C2)c2cc(-c3ccccc3C(F)(F)F)ccc2n1` [Compound A262], for which the IC50 was in the range of 10 to 1000 nM.
In the case of `Nc1nc(C(=O)N2Cc3ccccc3C2)c2cc(-c3ccccc3C=O)ccc2n1` [Compound A969, 2-[2-amino-4-(1,3-dihydroisoindole-2-carbonyl)quinazolin-6-yl]benzaldehyde] it was 10 to 1000 nM; in that of `Nc1nc(C(=O)N2Cc3ccccc3C2)c2cc(-c3ccccc3CNCCO)ccc2n1` [Compound A972], 10 to 1000 nM; in that of `C#CCCNC(=O)c1nc(N)nc2ccccc12` [Compound A19, 2-Amino-4-propargylmethylcarbamoylquinazoline], over 10000 nM.
As to `Nc1nc(C(=O)Nc2ccccc2-c2ccccc2)c2ccccc2n1` [Compound A46], the half-maximal inhibitory concentration (IC50) is 1000 to 10000 nM.
On to `CC(C)c1ccc2nc(N)nc(C(=O)N3Cc4ccccc4C3)c2c1` [Compound A118, 2-Amino-6-isopropyl-4-(1,3-dihydroisoindol-2-ylcarbonyl)quinazoline], for which the IC50 lay in the range of 1000 to 10000 nM.
Consider `CN(C)C(=O)c1nc(N)nc2ccccc12` [Compound A5, 2-Amino-4-dimethylcarbamoylquinazoline], for which the IC50 is over 10000 nM.
For the molecule `Nc1nc(C(=O)N2Cc3ccccc3C2)c2cc(-c3ccncc3)ccc2n1` [Compound A922, 2-Amino-6-(pyridin-4-yl)-4-(1,3-dihydroisoindol-2-ylcarbonyl)quinazoline], the 50% inhibitory concentration (IC50) lay in the range of 10 to 1000 nM.

One may read the IC50 as the concentration that inhibits the measured activity by half.
